Test results from patent US20240309015A1, “Methods for the Treatment of Fibrotic Disease” (SHY Therapeutics, LLC, priority 2021, published 2024).

Columns and labels:
serum albumin = experiment: Albumin western blot of D2-mdx mouse tissues; assay type: in vivo; details: D2-mdx mice, 100 mg/kg IP daily for 3 days
Excerpt: (§1) The experiment described herein was designed to monitor the effects of Compound 9 on two biomarkers related to fibrosis in D2-mdx mice. The first biomarker is Smad2 phosphorylation, and the second is the levels of serum albumin in the different muscle tissues. Fibrosis causes disruption of the fine transparent tubular sheath which envelops the fibers of skeletal muscles, this can result in various molecules from the blood and interstitial fluid leaking into myofibres. A classic example is serum albumin, which can be identified in tissue sections and considered to be hallmark of myofibre permeability.
(§2) Experimental Design: Compound 9 was suspended in 0.5% Hydroxypropyl Methylcellulose (HPMC)/0.1% Tween® 80 to a final concentration of 10 mg/mL. […]
(§3) Tissue protein extraction: Frozen tissues were placed on ice in prechilled tubes with 30 μL/mg with of ice-cold RIPA buffer+Halt™ Protease & Phosphatase Inhibitor Cocktail. […] Supernatant was removed and protein concentration determined by BCA assay.
(§4) Western blot protocol: Equal amounts of protein (15-50 μg) were separated by SDS-PAGE and transferred to nitrocellulose membranes (Invitrogen by Thermo Fisher Scientific). […] Membranes were blocked with 10% milk and albumin levels were assessed by incubating overnight at 4° C. with albumin antibody (Cell Signaling Technology #4929). […]

[1] = Observation for overt toxicity in D2-mdx mice; assay type: in vivo; details: male D2-mdx mice, 100 mg/kg IP daily for 3 days
Method: Experimental Design: Compound 9 was suspended in 0.5% Hydroxypropyl Methylcellulose (HPMC)/0.1% Tween® 80 to a final concentration of 10 mg/mL. The dosing solutions were prepared prior to the start of the test and were stored in the dark and maintained in frozen aliquots. Doses were thawed prior to administration. Male D2-mdx (JAX Stock No: 013141) mice were sourced from The Jackson Laboratory and housed in solid bottom cages with standard chow and water ad libitum. Dosing was initiated when animals were −3 weeks old. Animals were dosed daily by intraperitoneal (IP) injection at 100 mg/kg or vehicle for 3 days. […] Mice were sacrificed by CO2 euthanasia approximately 6 hours after their day 3 dosing. Heart, diaphragm, quadriceps, tibialis anterior (TA) samples were collected at termination on day 3 and snap frozen. These samples were shipped on dry ice for analysis, and were stored at −80° C.

Smad2 phosphorylation = experiment: Phospho-Smad2 western blot of D2-mdx mouse tissues; assay type: in vivo; details: 100 mg/kg IP daily for 3 days
Excerpt: as §1, §2, §3, §4

KRas G12D mutant = experiment: Ras GTP Binding Domain Inhibition Assay, KRas G12D mutant; details: at 20 μM; for KRas G12D mutant + SOS: % inh.: with SOS; for KRas G12D mutant: % inh.: without SOS
Outline: (§5)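 Read-out is fluorescence of Cy3- or Cy5-GTP (100 nM, 45 min, room temperature) still bound after three washes. Beforehand, His-tagged protein on nickel wells was exposed to compound (20 μM, or a dilution series for IC50) for 3 h, with or without Sos in the last hour.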

Rho-A = experiment: Ras GTP Binding Domain Inhibition Assay, Rho-A; details: at 20 μM; for Rho-A: % inh.: without SOS
Outline: as §5

[2] = Observation for overt toxicity in DBA/2J mice; assay type: in vivo; details: male DBA/2J mice, single dose, 100 mg/kg IP
Method: Experimental Design: Compound 9 was suspended in 0.5% Hydroxypropyl Methylcellulose (HPMC)/0.1% Tween® 80 to a final concentration of 10 mg/mL. The dosing solutions were prepared prior to the start of the test. Male DBA/2J mice (Jackson Stock No: 000671) were housed in solid bottom cages with standard chow and water ad libitum. Dosing was initiated when animals were 7-8 weeks old. Mice were dosed at a volume of 10 mL/kg by intraperitoneal (IP) injection at 100 mg/kg or vehicle. […] Blood was collected at 15 min, 30 min, 1 h, 2 h, 4 h, 7 h, 16 h, 24 h by cardiac puncture, mixed gently 8 times and put on ice until centrifuged within 30 minutes of collection. The plasma was transferred to a 96-well plate for analysis of test compound levels.

KRas wild type = experiment: Ras GTP Binding Domain Inhibition Assay, KRas wild type; details: at 20 μM; for KRas wild type + SOS: % inh.: with SOS; for KRas wild type: % inh.: without SOS
Outline: as §5

[3] = Assessment of plasma exposure in DBA/2J mice; assay type: in vivo, mouse; details: Group 4: 100 mg/kg PO, Vehicle 2 (Solubilized Lipid)
KRas G12C mutant = experiment: Ras GTP Binding Domain Inhibition Assay, KRas G12C mutant; details: at 20 μM; for KRas G12C mutant + SOS: % inh.: with SOS; for KRas G12C mutant: % inh.: without SOS
Outline: as §5

TNFα = experiment: Mouse TNF Alpha Quantification Assay (LPS-stimulated RAW 264.7); assay type: cell-based; design: dose or concentration left out as unconfirmed; details: RAW264.7, ELISA, read-out: TNFα: % inh.
Smad2/3 phosphorylation = experiment: Phospho-Smad2/3 Inhibition Assay in PANC-1; assay type: cell-based; details: Homo sapiens; 10 μM compound, 3 h; TGF-b1 stimulated PANC-1; western blot; read-out: % inh of Smad2/3 phosphorylation in PANC-1
Outline: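 Serum-starved cells (0.5% FBS overnight) pretreated 3 h at 37 °C with compound at 10 μM or serial dilutions for IC50, in 0.3% DMSO. TGF-b1 10 ng/ml stimulation: 1 h for Panc-1 (human), 20 min for C2C12 (mouse). Phospho-Smad2 (Ser465/467) and phospho-Smad3 (Ser423/425) measured by western blot of lysates.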

IL-6 = experiment: Mouse IL6 Quantification Assay (LPS-stimulated RAW 264.7); assay type: cell-based; design: dose or concentration left out as unconfirmed; details: RAW264.7, ELISA, read-out: IL-6: % inh.

KRas G12D mutant + SOS: % inh. (KRas G12D mutant; Table 7)	KRas G12D mutant + SOS: % inh. (KRas G12D mutant; Table 8)	KRas G12D mutant: % inh. (KRas G12D mutant; Table 7)	KRas G12D mutant: % inh. (KRas G12D mutant; Table 8)	Rho-A: % inh. (Rho-A)	KRas wild type + SOS: % inh. (KRas wild type)	KRas wild type: % inh. (KRas wild type)	KRas G12C mutant + SOS: % inh. (KRas G12C mutant)	KRas G12C mutant: % inh. (KRas G12C mutant)	SMILES	serum albumin levels in the heart (serum albumin)	serum albumin levels in the tibialis anterior and quadricep muscles (serum albumin)	findings of overt toxicity [1]	Smad2 phosphorylation in the diaphragm compared to control vehicle mice (Smad2 phosphorylation)	Smad2 phosphorylation in the heart (Smad2 phosphorylation; D2-mdx mice)	Rho-A + SOS: % inh. (Rho-A; with SOS)	findings of overt toxicity [2]	Tmax [3]	inhibition (TNFα)	inhibition at 10 µM (Smad2/3 phosphorylation)	inhibition (IL-6)
0 (0 = 0% inhibition)	0 (0 = 0% inhibition)	A (A = 1-25% inhibition)	A (A = 1-25% inhibition)	0 (0 = 0% inhibition)	A (A = 1-25% inhibition)	A (A = 1-25% inhibition)	A (A = 1-25% inhibition)	0 (0 = 0% inhibition)	COc1cc(Cn2c(-c3nccn3C)nc3sc(-c4ccn(C(C)C)n4)c(C)c3c2=O)ncn1 [Compound 35, 6-(1-Isopropyl-1H-pyrazol-3-yl)-3-((6-methoxypyrimidin-4-yl)methyl)-5-methyl-2-(1-methyl-1H-imidazol-2-yl)thieno[2,3-d]pyrimidin-4(3H)-one]	–	–	–	–	–	–	–	–	1 to 25%	0%	1 to 25%
0 (0 = 0% inhibition)	0 (0 = 0% inhibition)	0 (0 = 0% inhibition)	0 (0 = 0% inhibition)	0 (0 = 0% inhibition)	A (A = 1-25% inhibition)	A (A = 1-25% inhibition)	A (A = 1-25% inhibition)	0 (0 = 0% inhibition)	COCCCn1c(-c2nccn2C)nc2sc(-c3ccn(C(C)C)n3)c(-c3ccccc3)c2c1=O [Compound 36, 6-(1-Isopropyl-1H-pyrazol-3-yl)-3-(3-methoxypropyl)-2-(1-methyl-1H-imidazol-2-yl)-5-phenylthieno[2,3-d]pyrimidin-4(3H)-one]	–	–	–	–	–	–	–	–	0%	0%	46 to 75%
0 (0 = 0% inhibition)	0 (0 = 0% inhibition)	0 (0 = 0% inhibition)	0 (0 = 0% inhibition)	0 (0 = 0% inhibition)	A (A = 1-25% inhibition)	0 (0 = 0% inhibition)	0 (0 = 0% inhibition)	0 (0 = 0% inhibition)	COCCCOc1nc(-c2nccn2C)nc2sc(-c3ccn(C(C)C)n3)c(-c3ccccc3)c12 [Compound 37, 6-(1-Isopropyl-1H-pyrazol-3-yl)-4-(3-methoxypropoxy)-2-(1-methyl-1H-imidazol-2-yl)-5-phenylthieno[2,3-d]pyrimidine]	–	–	–	–	–	–	–	–	0%	0%	76 to 100%
D (D = 76-100% inhibition)	D (D = 76-100% inhibition)	C (C = 46-75% inhibition)	C (C = 46-75% inhibition)	B (B = 26-45% inhibition)	D (D = 76-100% inhibition)	C (C = 46-75% inhibition)	D (D = 76-100% inhibition)	C (C = 46-75% inhibition)	COc1cccc(-c2sc3nc(-c4nccn4C)nc(N[C@H]4C[C@H](OC)C4)c3c2-c2ccccc2)c1F [Compound 40, 6-(2-Fluoro-3-methoxyphenyl)-N-((1r,3r)-3-methoxycyclobutyl)-2-(1-methyl-1H-imidazol-2-yl)-5-phenylthieno[2,3-d]pyrimidin-4-amine]	–	–	–	–	–	–	–	–	76 to 100%	76 to 100%	76 to 100%

SMILES	KRas G12D mutant + SOS: % inh. (KRas G12D mutant; Table 7)	KRas G12D mutant + SOS: % inh. (KRas G12D mutant; Table 8)	KRas G12D mutant: % inh. (KRas G12D mutant; Table 7)	KRas G12D mutant: % inh. (KRas G12D mutant; Table 8)	Rho-A: % inh. (Rho-A)	KRas wild type + SOS: % inh. (KRas wild type)	KRas wild type: % inh. (KRas wild type)	KRas G12C mutant + SOS: % inh. (KRas G12C mutant)	KRas G12C mutant: % inh. (KRas G12C mutant)	serum albumin levels in the heart (serum albumin)	serum albumin levels in the tibialis anterior and quadricep muscles (serum albumin)	findings of overt toxicity [1]	Smad2 phosphorylation in the diaphragm compared to control vehicle mice (Smad2 phosphorylation)	Smad2 phosphorylation in the heart (Smad2 phosphorylation; D2-mdx mice)	Rho-A + SOS: % inh. (Rho-A; with SOS)	findings of overt toxicity [2]	Tmax [3]	inhibition (TNFα)	inhibition at 10 µM (Smad2/3 phosphorylation)	inhibition (IL-6)
COCCNc1nc(-c2nccn2C)nc2sc(-c3cccc(OC)c3Cl)c(-c3ccccc3)c12 [Compound 9, 6-(2-Chloro-3-methoxyphenyl)-N-(2-methoxyethyl)-2-(1-methyl-1H-imidazol-2-yl)-5-phenylthieno[2,3-d]pyrimidin-4-amine]	C (C = 46-75% inhibition)	C (C = 46-75% inhibition)	C (C = 46-75% inhibition)	C (C = 46-75% inhibition)	B (B = 26-45% inhibition)	D (D = 76-100% inhibition)	C (C = 46-75% inhibition)	D (D = 76-100% inhibition)	B (B = 26-45% inhibition)	No changes	clear decrease	No findings of overt toxicity were observed	inhibition of Smad2 phosphorylation	No changes	B (B = 26-45% inhibition)	No findings of overt toxicity were observed	4 h	–	–	–
